Patent US20250241901A1, “ACTIVATION OF MNRR1 / CHCHD2 AS A THERAPEUTIC TARGET FOR MITOCHONDRIA ASSOCIATED DISORDERS” (Wayne State University, priority 2024, published 2025)

Columns and labels:
[1] = tested on: MNRR1; experiment: MNRR1 transcript and protein levels in decidua and placenta of LPS-injected dams; assay type: in vivo, mouse
Description: FIGS. 2A-2F. Nitazoxanide prevents preterm delivery and improves neonatal mortality in vivo. (FIG. 2A) Schematic illustration depicting the administration of nitazoxanide (marketed under the commercial name Alinia) and LPS in the murine model of preterm birth. (FIG. 2B) Gestational length of mice was obtained using video-monitoring until delivery (n=6-8 animals). (FIG. 2C) Neonatal mortality was determined by calculating the number of dead pups over total litter size (n=6-8 animals). […] No pups from LPS-injected dams survived beyond week 0 of birth. (FIG. 2E) MNRR1 transcript levels were measured in mouse decidual tissue (17.5 dpc). Actin was used as a housekeeping gene to normalize expression (n=4 animals for all except PBS+N, where n=3). (FIG. 2F) Equal amounts of whole placental lysates were separated on an SDS-PAGE gel and probed for MNRR1 levels. Actin was used as a loading control. Gel is representative of data obtained from 2 animals. […]
Real-time polymerase chain reaction: Total cellular RNA was extracted from mouse placental tissues or HTR8 cells by using a RNeasy Plus Mini Kit (Qiagen, Germantown, MD, USA), according to the manufacturer's instructions. […] Transcript levels were measured by real-time PCR by using SYBR green on an ABI 7500 system. […]

[2] = tested on: MNRR1; experiment: MNRR1 immunoblot in several other human cell lines; assay type: cell-based; settings: 10 μM, 24 h
Description: FIGS. 5A-5E: FIG. 5A: Venn diagram showing activators identified in HEK293 and MDA-MB-468 cells. FIG. 5B: Equal amounts of MELAS cells treated with Vehicle (DMSO) or various MNRR1 activating compounds (10 μM) for 24 h were separated on an SDS-PAGE gel and probed for MNRR1 levels. Actin was probed as a loading control and numbers below represent an average and standard deviation (SD) of two biological replicates. FIGS. 5C-5E: Equal amounts of cell lysates from various cell lines treated with vehicle (DMSO) or tizoxanide (10 μM) for 24 h were separated on an SDS-PAGE gel and probed for MNRR1 plus loading controls GAPDH or tubulin.
Immunoblotting: Immunoblotting was performed as described previously. Cell lysates for immunoblotting were prepared using RIPA buffer (Abcam, Waltham, MA) and included a protease and phosphatase inhibitor cocktail (Sigma, St. Louis, MO). Total protein extracts were obtained by centrifugation at 21,000×g for 30 min at 4° C. The clear supernatants were transferred to new tubes and quantified using the Bradford reagent with BSA as standard (BioRad, Hercules. CA). […] For detection after immunoblotting, the SuperSignal™ West Pico PLUS substrate (ThermoFisher, Waltham, MA) was used to generate chemiluminescence signal, which was detected with X-Ray film (RadTech, Vassar, MI).

[3] = tested on: mtDNA harboring the m.3243A>G mutation; experiment: Heteroplasmy by Haelll digestion of mtDNA fragment, DW7 cells; assay type: cell-based, human; settings: 10 μM, 144 h
Description: FIGS. 7A-7E: MNRR1 activation by tizoxanide enhances mtDNA biogenesis and mitophagy to shift heteroplasmy in MELAS cells. FIG. 7A: Oxygen consumption measured from MELAS cybrid cells treated with vehicle (DMSO) or tizoxanide (10 μM) for 48 h (n=4 biological replicates, error bars represent SE). FIG. 7B: Haelll restriction enzyme digestion of a PCR-amplified fragment of mtDNA harboring the m.3243A>G mutation from DW7 cells treated with vehicle (DMSO) or tizoxanide (10 μM) for 144 h. […] FIG. 7C: Genes identified using qPCR of MELAS cybrid cells stably overexpressing EV or MNRR1. FIG. 7D: MtDNA levels are shown relative to nuclear DNA (nDNA) (GAPDH) (n=5 biological replicates, error bars represent SE). FIG. 7E: Equal amounts of MELAS cybrid cell lysates, treated with vehicle (DMSO) or tizoxanide (10 μM) for 48 h, were separated on an SDS-PAGE gel and probed for PGC1a, PINK1, LC3 A/B, MNRR1, and Tubulin. FIG. 7F: Equal numbers of MELAS cells were treated as in FIG. 7E, separated on an SDS-PAGE gel, and probed for phospho-ubiquitin (S65) levels. Tubulin was probed as a loading control. In all figures, * indicates p<0.05, ** indicates p<0.005.
Restriction Enzyme Digestion: DNA was analyzed for the MELAS mutation as described previously. […]

Structure (SMILES)	MNRR1 transcript level in the decidua ([1]; 17.5 dpc)	MNRR1 protein level in the placenta ([1]; whole placental lysates)	MNRR1 level [2]	increase in proportion of WT mtDNA [3]
CC(=O)Oc1ccccc1C(=O)Nc1ncc([N+](=O)[O-])s1 [nitazoxanide, Nitazoxanide]	restored the LPS-induced reduction of MNRR1	restored the LPS-induced reduction of MNRR1	–	–
O=C(Nc1ncc([N+](=O)[O-])s1)c1ccccc1O [tizoxanide, Tizoxanide]	–	–	increase of MNRR1	about 14%
